According to ChEMBL document CHEMBL1150109, “New cytotoxic coumarins and prenylated benzophenone derivatives from the bark of Ochrocarpos punctatus from the Madagascar rainforest” (J Nat Prod, 2002):
Values after ≈ are worked out from the molar mass of the structure shown.

Tested on: A2780
Test: Cytotoxicity against human A2780 cells
Type: functional, cell-based

SMILES | IC50 [µg/mL]
CCC(C)C(=O)c1c2c(c3oc(=O)cc(-c4ccccc4)c3c1O)CC(C(C)(C)O)O2 (stereo unspecified) | 8.2 (≈ 19.4 µM)
CC(C)CC(=O)c1c2c(c3oc(=O)cc(-c4ccccc4)c3c1O)CC(C(C)(C)O)O2 (stereo unspecified) | 6.4 (≈ 15.1 µM)
CCC(C)C(=O)c1c2c(c3oc(=O)cc(-c4ccccc4)c3c1O)C=CC(C)(C)O2 (stereo unspecified) | 4.5 (≈ 11.1 µM)
CCCC(=O)c1c2c(c3oc(=O)cc(-c4ccccc4)c3c1O)CC(C(C)(C)O)O2 (stereo unspecified) | 4.4 (≈ 10.8 µM)
CC(C)=CCC1CC2(CC=C(C)C)C(=O)C3=C(OC(C)(C)C(OO)C3)C(C(=O)c3ccccc3)(C2=O)C1(C)C (stereo unspecified) | 8.4 (≈ 15.7 µM)
CCC(OC(C)=O)c1cc(=O)oc2c3c(c(C(=O)[C@@H](C)CC)c(O)c12)OC(C(C)(C)O)C3 (single isomer, unassigned) [OCHROCARPIN G] | 8.6 (≈ 19.3 µM)
CC(C)C(=O)c1c2c(c3oc(=O)cc(-c4ccccc4)c3c1O)C=CC(C)(C)O2 [MESUAGIN] | 10.8 (≈ 27.7 µM)
CC[C@H](C)C(=O)c1c(O)c2c(-c3ccccc3)cc(=O)oc2c2cc(C(C)(C)O)oc12 [OCHROCARPIN A] | 5.2 (≈ 12.4 µM)
CC(C)CC(=O)c1c(O)c2c(-c3ccccc3)cc(=O)oc2c2cc(C(C)(C)O)oc12 [OCHROCARPIN B] | 3.8 (≈ 9.04 µM)
CC(C)C(=O)c1c(O)c2c(-c3ccccc3)cc(=O)oc2c2cc(C(C)(C)O)oc12 [OCHROCARPIN C] | 3.7 (≈ 9.1 µM)
CC[C@H](C)C(=O)c1c(O)c2c(-c3ccccc3)cc(=O)oc2c2cc(C(C)(C)OC)oc12 [OCHROCARPIN D] | 6.3 (≈ 14.5 µM)
CC(C)C(=O)c1c(O)c2c(c3c(-c4ccccc4)cc(=O)oc13)OC(C(C)(C)O)C2 (stereo unspecified) [OCHROCARPIN E] | 4.9 (≈ 12 µM)
CC[C@H](C)C(=O)c1c2c(c3oc(=O)cc([C@@H](CC)OC(C)=O)c3c1O)CC(C(C)(C)O)O2 (stereo partly specified) [OCHROCARPIN F] | 8.9 (≈ 19.9 µM)
CC(C)=CCC1CC2(CC=C(C)C)C(=O)C(C(=O)c3ccccc3)(C(=O)C3=C2OC(C)(C)C(OO)C3)C1(C)C (stereo unspecified) [OCHROCARPINONE A] | 6.9 (≈ 12.9 µM)
CC(C)=CCC1CC2(CC=C(C)C)C(=O)C3=C(OC(C(C)(C)O)C3)C(C(=O)c3ccccc3)(C2=O)C1(C)C (stereo unspecified) [OCHROCARPINONE B] | 7.4 (≈ 14.3 µM)
CC(C)=CCC1CC2(CC=C(C)C)C(=O)C(C(=O)c3ccccc3)(C(=O)C3=C2OC(C(C)(C)O)C3)C1(C)C (stereo unspecified) [OCHROCARPINONE C] | 8.2 (≈ 15.8 µM)
